BigSolDB 2.1

Cc1c(N)c(=O)n(-c2ccccc2)n1C
solubility (mole fraction)
Conditions	in acetone	in ethanol	in ethyl acetate	in isopropanol	in methanol	in n-butanol	in n-propanol	in sec-butanol	in water
299.05 K	0.37	0.22	0.08	0.19	0.23	0.15	0.21	0.14	0.13
303.15 K	0.4	0.25	0.09	0.22	0.25	0.17	0.24	0.16	0.15
307.25 K	0.43	0.28	0.11	0.25	0.28	0.19	0.28	0.18	0.17
311.05 K	0.44	0.31	0.13	0.29	0.31	0.21	0.31	0.2	0.19
315.15 K	0.47	0.35	0.15	0.32	0.34	0.24	0.35	0.23	0.22
321.05 K	0.52	0.41	0.2	0.38	0.39	0.29	0.41	0.27	0.27
327.15 K	0.55	0.48	0.25	0.45	0.44	0.34	0.46	0.31	0.33
338.35 K	0.62	0.6	0.36	0.57	0.57	0.46	0.59	0.41	0.44
